# According to paper PMC5263201, “GABAA receptor occupancy by subtype selective GABAAα2,3 modulators: PET studies in humans” (Psychopharmacology, 2016):
# Like-named read-outs stand apart in the source and are kept apart here.
# Key:
# GABAA α5β3γ2 = target: GABAA α5β3γ2; parameters: method as in Christian et al 2015; settings: recombinant Sf9 membranes α5β3γ2; [3H]flunitrazepam; mean (SD); ref Christian et al 2015; read-out: Affinity in vitro at BZ binding site (Ki) α5; cited from earlier work
# [1] = AZD6280; ref parallel multiple ascending dose study; cited from earlier work
# P-gp = P-gp (Homo sapiens, UniProt P08183); test: P-gp substrate assessment; type: in vitro ADME
# Melatonin MT1 = Melatonin MT1 (Homo sapiens, UniProt P48039); test: Secondary receptor binding profile
# GABAA α3β3γ2 [2] = system: GABAA α3β3γ2; parameters: method as in Christian et al 2015; settings: 1µM test concentration, GABA EC10, % of 1 µM diazepam, mean ±SE, ref Christian et al 2015; cited from earlier work
# GABAA α1β2γ2 = system: GABAA α1β2γ2; parameters: method as in Christian et al 2015; settings: 1µM test concentration, GABA EC10, % of 1 µM diazepam, mean ±SE, ref Christian et al 2015; cited from earlier work
# [3] = parameters: method as in AstraZeneca Single Ascending Dose studies; settings: ref AstraZeneca Single Ascending Dose studies, cited from earlier work
# GABAA α3β3γ2 [4] = target: GABAA α3β3γ2; parameters: method as in Christian et al 2015; settings: recombinant Sf9 membranes α3β3γ2; [3H]flunitrazepam; mean (SD); ref Christian et al 2015; read-out: Affinity in vitro at BZ binding site (Ki) α3; cited from earlier work
# [5] = Binding to human plasma proteins; type: in vitro ADME; settings: read-out: unbound fraction of the total plasma drug
# GABAA α2β3γ2 [6] = system: GABAA α2β3γ2; parameters: method as in Christian et al 2015; settings: 1µM test concentration, GABA EC10, % of 1 µM diazepam, mean ±SE, ref Christian et al 2015; cited from earlier work
# GABAA α2β3γ2 [7] = target: GABAA α2β3γ2; parameters: method as in Christian et al 2015; settings: recombinant Sf9 membranes α2β3γ2; [3H]flunitrazepam; mean (SD); ref Christian et al 2015; read-out: Affinity in vitro at BZ binding site (Ki) α2; cited from earlier work
# [8] = parameters: method as in AstraZeneca Single Ascending Dose studies; settings: 6 subjects, ref AstraZeneca Single Ascending Dose studies, cited from earlier work
# [9] = AZD6280 1mg, Part A, 8 subjects
# [10] = AZD6280 5mg, Part B, 8 subjects
# [11] = AZD6280 20mg, Part A, 8 subjects
# [12] = AZD6280 30mg, Part B, 7 subjects
# [13] = AZD6280 40mg, Part A, 8 subjects
# [14] = AZD6280 60mg, Part B, 8 subjects
# Sequence of Melatonin MT1 (P48039 whole entry): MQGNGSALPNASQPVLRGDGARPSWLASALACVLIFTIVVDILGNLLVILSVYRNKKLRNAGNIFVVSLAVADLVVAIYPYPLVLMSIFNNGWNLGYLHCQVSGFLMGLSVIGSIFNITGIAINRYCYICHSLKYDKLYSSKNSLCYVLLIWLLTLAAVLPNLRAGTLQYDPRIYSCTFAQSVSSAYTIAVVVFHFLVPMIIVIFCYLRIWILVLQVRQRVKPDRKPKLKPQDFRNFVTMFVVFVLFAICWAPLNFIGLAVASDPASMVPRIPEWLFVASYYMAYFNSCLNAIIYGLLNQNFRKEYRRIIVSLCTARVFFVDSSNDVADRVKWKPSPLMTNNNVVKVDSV
# Sequence of P-gp (P08183 whole entry): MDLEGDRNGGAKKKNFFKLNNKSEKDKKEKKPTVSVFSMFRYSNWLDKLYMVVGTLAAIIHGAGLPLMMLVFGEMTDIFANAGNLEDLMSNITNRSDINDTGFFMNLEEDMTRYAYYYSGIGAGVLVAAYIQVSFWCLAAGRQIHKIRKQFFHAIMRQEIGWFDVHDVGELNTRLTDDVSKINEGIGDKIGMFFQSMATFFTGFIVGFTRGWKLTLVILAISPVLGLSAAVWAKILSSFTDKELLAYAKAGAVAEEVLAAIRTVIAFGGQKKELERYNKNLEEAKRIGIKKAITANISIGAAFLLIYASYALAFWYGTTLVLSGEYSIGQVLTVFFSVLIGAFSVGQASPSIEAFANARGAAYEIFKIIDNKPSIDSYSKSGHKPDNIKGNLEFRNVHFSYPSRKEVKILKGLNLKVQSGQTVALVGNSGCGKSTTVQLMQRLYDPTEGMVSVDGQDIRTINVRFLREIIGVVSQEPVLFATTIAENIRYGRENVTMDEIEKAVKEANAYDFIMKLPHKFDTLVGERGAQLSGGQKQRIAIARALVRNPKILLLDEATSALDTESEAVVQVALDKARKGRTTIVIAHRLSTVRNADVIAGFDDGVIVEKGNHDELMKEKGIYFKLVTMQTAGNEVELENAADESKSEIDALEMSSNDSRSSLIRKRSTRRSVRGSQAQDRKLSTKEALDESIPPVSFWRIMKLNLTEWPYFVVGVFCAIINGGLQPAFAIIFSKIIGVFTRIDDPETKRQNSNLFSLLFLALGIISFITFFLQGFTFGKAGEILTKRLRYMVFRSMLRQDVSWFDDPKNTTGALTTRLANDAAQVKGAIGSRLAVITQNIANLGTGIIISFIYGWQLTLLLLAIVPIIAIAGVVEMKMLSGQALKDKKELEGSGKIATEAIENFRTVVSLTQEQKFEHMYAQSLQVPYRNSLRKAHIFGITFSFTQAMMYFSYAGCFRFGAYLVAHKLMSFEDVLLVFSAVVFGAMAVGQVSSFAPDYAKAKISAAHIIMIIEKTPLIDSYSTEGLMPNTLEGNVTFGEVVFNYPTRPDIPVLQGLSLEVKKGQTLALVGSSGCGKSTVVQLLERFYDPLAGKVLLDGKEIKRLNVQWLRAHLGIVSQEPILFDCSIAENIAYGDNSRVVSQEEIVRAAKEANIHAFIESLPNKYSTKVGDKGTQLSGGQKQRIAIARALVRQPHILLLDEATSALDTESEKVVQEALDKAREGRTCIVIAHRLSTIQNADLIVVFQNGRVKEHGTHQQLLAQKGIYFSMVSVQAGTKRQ
smiles,measurement,setting,value
CCCNC(=O)c1nnc2c(-c3cc(OC)ccc3OC)cccc2c1N [AZD6280],Ki,GABAA α5β3γ2,1680 ± 650 nM
same,maximum tolerated dose (MTD),[1],40 mg
same,P-gp substrate,P-gp,Neither compound is a P-gp substrate
same,IC50,Melatonin MT1,116 nM
same,Relative efficacy (%DZ) α3,GABAA α3β3γ2 [2],34±3%
same,Relative efficacy (%DZ) α1,GABAA α1β2γ2,9±3%
same,Number of subjects with at least one adverse event,[3]; [9],2 (25) Number (%) of patients
same,abnormal coordination,[3]; [9],0 Number (%) of patients
same,depersonalisation,[3]; [9],0 Number (%) of patients
same,dizziness,[3]; [9],0 Number (%) of patients
same,dreamy state,[3]; [9],0 Number (%) of patients
same,euphoric mood,[3]; [9],0 Number (%) of patients
same,headache,[3]; [9],1 (13) Number (%) of patients
same,nystagmus,[3]; [9],0 Number (%) of patients
same,somnolence,[3]; [9],0 Number (%) of patients
same,abnormal coordination,[3]; [10],0 Number (%) of patients
same,depersonalisation,[3]; [10],0 Number (%) of patients
same,dizziness,[3]; [10],2 (25) Number (%) of patients
same,dreamy state,[3]; [10],0 Number (%) of patients
same,euphoric mood,[3]; [10],0 Number (%) of patients
same,headache,[3]; [10],1 (13) Number (%) of patients
same,nystagmus,[3]; [10],0 Number (%) of patients
same,somnolence,[3]; [10],1 (13) Number (%) of patients
same,Number of subjects with at least one adverse event,[3]; [11],6 (75) Number (%) of patients
same,abnormal coordination,[3]; [11],0 Number (%) of patients
same,depersonalisation,[3]; [11],0 Number (%) of patients
same,dizziness,[3]; [11],0 Number (%) of patients
same,dreamy state,[3]; [11],0 Number (%) of patients
same,euphoric mood,[3]; [11],0 Number (%) of patients
same,headache,[3]; [11],2 (25) Number (%) of patients
same,nystagmus,[3]; [11],0 Number (%) of patients
same,somnolence,[3]; [11],1 (13) Number (%) of patients
same,Number of subjects with at least one adverse event,[3]; [12],2 (29) Number (%) of patients
same,abnormal coordination,[3]; [12],0 Number (%) of patients
same,depersonalisation,[3]; [12],0 Number (%) of patients
same,dizziness,[3]; [12],0 Number (%) of patients
same,dreamy state,[3]; [12],0 Number (%) of patients
same,euphoric mood,[3]; [12],1 (14) Number (%) of patients
same,headache,[3]; [12],0 Number (%) of patients
same,nystagmus,[3]; [12],0 Number (%) of patients
same,somnolence,[3]; [12],2 (29) Number (%) of patients
same,Number of subjects with at least one adverse event,[3]; [13],6 (75) Number (%) of patients
same,abnormal coordination,[3]; [13],0 Number (%) of patients
same,depersonalisation,[3]; [13],0 Number (%) of patients
same,dizziness,[3]; [13],0 Number (%) of patients
same,dreamy state,[3]; [13],0 Number (%) of patients
same,euphoric mood,[3]; [13],1 (13) Number (%) of patients
same,headache,[3]; [13],0 Number (%) of patients
same,nystagmus,[3]; [13],0 Number (%) of patients
same,somnolence,[3]; [13],3 (38) Number (%) of patients
same,Number of subjects with at least one adverse event,[3]; [14],7 (88) Number (%) of patients
same,abnormal coordination,[3]; [14],1 (13) Number (%) of patients
same,depersonalisation,[3]; [14],1 (13) Number (%) of patients
same,dizziness,[3]; [14],2 (25) Number (%) of patients
same,dreamy state,[3]; [14],1 (13) Number (%) of patients
same,euphoric mood,[3]; [14],0 Number (%) of patients
same,headache,[3]; [14],1 (13) Number (%) of patients
same,nystagmus,[3]; [14],1 (13) Number (%) of patients
same,somnolence,[3]; [14],3 (38) Number (%) of patients
same,Ki,GABAA α3β3γ2 [4],31 ± 17 nM
same,fraction unbound,[5],~0.1
same,Relative efficacy (%DZ) α2,GABAA α2β3γ2 [6],36±4%
same,Ki,GABAA α2β3γ2 [7],21 ± 5 nM
CCCNC(=O)c1nnc2c(-c3c(F)cccc3OC)cccc2c1N [AZD7325],Number of subjects with at least one adverse event,[8]; AZD7325 0.2 mg,2 (33) Number (%) of patients
same,anxiety,[8]; AZD7325 0.2 mg,0 Number (%) of patients
same,dizziness,[8]; AZD7325 0.2 mg,0 Number (%) of patients
same,euphoric mood,[8]; AZD7325 0.2 mg,0 Number (%) of patients
same,hypoaesthesia,[8]; AZD7325 0.2 mg,0 Number (%) of patients
same,paraesthesia,[8]; AZD7325 0.2 mg,0 Number (%) of patients
same,somnolence,[8]; AZD7325 0.2 mg,0 Number (%) of patients
same,Number of subjects with at least one adverse event,[8]; AZD7325 1mg,2 (33) Number (%) of patients
same,anxiety,[8]; AZD7325 1mg,0 Number (%) of patients
same,dizziness,[8]; AZD7325 1mg,0 Number (%) of patients
same,euphoric mood,[8]; AZD7325 1mg,0 Number (%) of patients
same,hypoaesthesia,[8]; AZD7325 1mg,0 Number (%) of patients
same,paraesthesia,[8]; AZD7325 1mg,0 Number (%) of patients
same,somnolence,[8]; AZD7325 1mg,0 Number (%) of patients
same,Number of subjects with at least one adverse event,[8]; AZD7325 5mg,4 (67) Number (%) of patients
same,anxiety,[8]; AZD7325 5mg,0 Number (%) of patients
same,dizziness,[8]; AZD7325 5mg,0 Number (%) of patients
same,euphoric mood,[8]; AZD7325 5mg,0 Number (%) of patients
same,hypoaesthesia,[8]; AZD7325 5mg,1 (17) Number (%) of patients
same,paraesthesia,[8]; AZD7325 5mg,0 Number (%) of patients
same,somnolence,[8]; AZD7325 5mg,1 (17) Number (%) of patients
same,Number of subjects with at least one adverse event,[8]; AZD7325 10 mg,2 (33) Number (%) of patients
same,anxiety,[8]; AZD7325 10 mg,0 Number (%) of patients
same,dizziness,[8]; AZD7325 10 mg,2 (33) Number (%) of patients
same,euphoric mood,[8]; AZD7325 10 mg,0 Number (%) of patients
same,hypoaesthesia,[8]; AZD7325 10 mg,0 Number (%) of patients
same,paraesthesia,[8]; AZD7325 10 mg,0 Number (%) of patients
same,somnolence,[8]; AZD7325 10 mg,0 Number (%) of patients
same,Number of subjects with at least one adverse event,[8]; AZD7325 20 mg,1 (17) Number (%) of patients
same,anxiety,[8]; AZD7325 20 mg,0 Number (%) of patients
same,dizziness,[8]; AZD7325 20 mg,0 Number (%) of patients
same,euphoric mood,[8]; AZD7325 20 mg,1 (17) Number (%) of patients
same,hypoaesthesia,[8]; AZD7325 20 mg,0 Number (%) of patients
same,paraesthesia,[8]; AZD7325 20 mg,0 Number (%) of patients
same,somnolence,[8]; AZD7325 20 mg,0 Number (%) of patients
same,Number of subjects with at least one adverse event,[8]; AZD7325 30 mg,3 (50) Number (%) of patients
same,anxiety,[8]; AZD7325 30 mg,0 Number (%) of patients
same,dizziness,[8]; AZD7325 30 mg,1 (17) Number (%) of patients
same,euphoric mood,[8]; AZD7325 30 mg,1 (17) Number (%) of patients
same,hypoaesthesia,[8]; AZD7325 30 mg,0 Number (%) of patients
same,paraesthesia,[8]; AZD7325 30 mg,0 Number (%) of patients
same,somnolence,[8]; AZD7325 30 mg,1 (17) Number (%) of patients
same,Number of subjects with at least one adverse event,[8]; AZD7325 50 mg,1 (50) Number (%) of patients
same,anxiety,[8]; AZD7325 50 mg,0 Number (%) of patients
same,dizziness,[8]; AZD7325 50 mg,0 Number (%) of patients
same,euphoric mood,[8]; AZD7325 50 mg,0 Number (%) of patients
same,hypoaesthesia,[8]; AZD7325 50 mg,0 Number (%) of patients
same,paraesthesia,[8]; AZD7325 50 mg,0 Number (%) of patients
same,somnolence,[8]; AZD7325 50 mg,0 Number (%) of patients
same,Number of subjects with at least one adverse event,[8]; AZD7325 75 mg,4 (67) Number (%) of patients
same,anxiety,[8]; AZD7325 75 mg,0 Number (%) of patients
same,dizziness,[8]; AZD7325 75 mg,0 Number (%) of patients
same,euphoric mood,[8]; AZD7325 75 mg,3 (50) Number (%) of patients
same,hypoaesthesia,[8]; AZD7325 75 mg,0 Number (%) of patients
same,paraesthesia,[8]; AZD7325 75 mg,1 (17) Number (%) of patients
same,somnolence,[8]; AZD7325 75 mg,0 Number (%) of patients
same,Number of subjects with at least one adverse event,[8]; AZD7325 100 mg,4 (67) Number (%) of patients
same,anxiety,[8]; AZD7325 100 mg,1 (17) Number (%) of patients
same,dizziness,[8]; AZD7325 100 mg,2 (33) Number (%) of patients
same,euphoric mood,[8]; AZD7325 100 mg,1 (17) Number (%) of patients
same,hypoaesthesia,[8]; AZD7325 100 mg,0 Number (%) of patients
same,paraesthesia,[8]; AZD7325 100 mg,0 Number (%) of patients
same,somnolence,[8]; AZD7325 100 mg,1 (17) Number (%) of patients
